Test system: Tie2 in HUVECs
Experiment: in vitro Tie2 phosphorylation (immunoprecipitation/immunoblot), HUVEC
Type: cell-based, human
Conditions: Ang1 15–400 ng/mL (0.05–1.43 nM), VT 5–100 ng/mL (0.36–7.1 nM), 10, 15 or 45 min, with or without starvation
From the text: Figure 7 In vitro Vasculotide vs. Ang1 stimulations: effects on Tie2 receptor phosphorylation in primary endothelial cells—HUVECs (A-E) and HMVEC-DBls (F) • A–F Primary human umbilical vein endothelial cells (HUVECs) or primary human dermal microvascular endothelial cells (HMVEC-DBls) were stimulated at 80% confluency with Vasculotide (treatment), Ang1 (positive control; ligand of Tie2), PBS (vehicle control), or VEGF (negative control; non-ligand of Tie2). Tie2 was immunoprecipitated from cell lysates and immunoblotted for total Tie2 or phosphotyrosine. […] Source data are available online for this figure. […]
Nodule areas were then […]
unit converted (to μm2) and normalized to total lung section area (including air spaces) using ROI measurements from ImageJ software (NIH).
7. Histological assessment of primary tumor viability and hypoxia
5-μm thick sections of PFA-fixed paraffin-embedded mammary fat pad tumors were subjected to: (i) standard hematoxylin and eosin (H&E) staining to visualize viable vs. necrotic regions; or (ii) standard IHC staining with a goat anti-human carbonic anhydrase IX (CAIX or CA9) antibody (R&D Systems AF2188, 1:80 dilution) plus hematoxylin counterstain to visualize hypoxic regions. […]
IHC staining for CAIX further marks a hypoxic band at the edge of the viability rim bordering the necrotic core – the thickness of this hypoxic edge was averaged over 12 measurements spaced 30o apart (see Fig. 5E).
8. Western immunoblotting for total or phosphorylated Tie2
Cultured ECs and TCs were lysed in RIPA lysis buffer as previously described (Bogdanovic et al, 2006).
Lung/ liver/ kidney tissues, which had been snap-frozen in liquid nitrogen once harvested from mice, were homogenized in RIPA lysis buffer (50 mM Tris-HCl pH 7.5, 150 mM NaCl, 1% Igepal, 0.5% sodium deoxycholate, 0.1% SDS, 1 mM Na3VO4 and protease inhibitors) at 4 °C. […]
Semi-quantitative densitometry analysis of immunoblots was performed using the ChemiGenius2 bioimaging system and GeneSnap/GeneTools software (Syngene). […]

Molecule	Tie2 phosphorylation	Tie2 phosphorylation (listed as VT)
CHHHRHSF [Vasculotide, 4-armed maleimide-functionalized polyethylene glycol (PEG) backbone to link together four cysteine-capped T7 peptides, that is, CHHHRHSF]	did not lead to increases in the pTie2/Tie2 ratio	did not lead to any appreciable induction of Tie2 phosphorylation
recombinant human Ang1 (rhAng1) (ligand, UniProt Q15389 16-498, looked up, angiopoietin-1, human, recombinant; also called angiopoietin-1; source: bought: R&D Systems (named for the Boyden chamber experiments)) HIGCSNQRRSPENSGRRYNRIQHGQCAYTFILPEHDGNCRESTTDQYNTNALQRDAPHVEPDFSSQKLQHLEHVMENYTQWLQKLENYIVENMKSEMAQIQQNAVQNHTATMLEIGTSLLSQTAEQTRKLTDVETQVLNQTSRLEIQLLENSLSTYKLEKQLLQQTNEILKIHEKNSLLEHKILEMEGKHKEELDTLKEEKENLQGLVTRQTYIIQELEKQLNRATTNNSVLQKQQLELMDTVHNLVNLCTKEGVLLKGGKREEEKPFRDCADVYQAGFNKSGIYTIYINNMPEPKKVFCNMDVNGGGWTVIQHREDGSLDFQRGWKEYKMGFGNPSGEYWLGNEFIFAITSQRQYMLRIELMDWEGNRAYSQYDRFHIGNEKQNYRLYLKGHTGTAGKQSSLILHGADFSTKDADNDNCMCKCALMLTGGWWFDACGPSNLNGMFYTAGQNHGKLNGIKWHYFKGPSYSLRSTTMMIRPLDF	strongly and consistently activated Tie2 phosphorylation	–

— paper PMC4459817, “Vasculotide reduces endothelial permeability and tumor cell extravasation in the absence of binding to or agonistic activation of Tie2” (EMBO Molecular Medicine, 2015)
